Test results published in article PMC11018872, “Dynamic inter-domain transformations mediate the allosteric regulation of human 5, 10-methylenetetrahydrofolate reductase” (Nature Communications, 2024).
pKd: −log10 of the molar value. One block for each compound: values may come before it.

What was measured:
Assay type in all cases: binding
[1] = molecular target: T1, 5,10-methylenetetrahydrofolate reductase (MTHFR) (Homo sapiens, UniProt P42898); assay: ITC; cryo-EM structures at […] and […] Å
T1 construct: MTHFRFL aa 1–656

[2] = molecular target: T1, 5,10-methylenetetrahydrofolate reductase (MTHFR); assay: cryo-EM structure at […] Å (SAM-bound state)
[3] = molecular target: T1, 5,10-methylenetetrahydrofolate reductase (MTHFR); assay: ITC; cryo-EM structure at […] Å; DSF; HPLC activity assay

T1 sequence (P42898 whole entry, the tested form may be a part): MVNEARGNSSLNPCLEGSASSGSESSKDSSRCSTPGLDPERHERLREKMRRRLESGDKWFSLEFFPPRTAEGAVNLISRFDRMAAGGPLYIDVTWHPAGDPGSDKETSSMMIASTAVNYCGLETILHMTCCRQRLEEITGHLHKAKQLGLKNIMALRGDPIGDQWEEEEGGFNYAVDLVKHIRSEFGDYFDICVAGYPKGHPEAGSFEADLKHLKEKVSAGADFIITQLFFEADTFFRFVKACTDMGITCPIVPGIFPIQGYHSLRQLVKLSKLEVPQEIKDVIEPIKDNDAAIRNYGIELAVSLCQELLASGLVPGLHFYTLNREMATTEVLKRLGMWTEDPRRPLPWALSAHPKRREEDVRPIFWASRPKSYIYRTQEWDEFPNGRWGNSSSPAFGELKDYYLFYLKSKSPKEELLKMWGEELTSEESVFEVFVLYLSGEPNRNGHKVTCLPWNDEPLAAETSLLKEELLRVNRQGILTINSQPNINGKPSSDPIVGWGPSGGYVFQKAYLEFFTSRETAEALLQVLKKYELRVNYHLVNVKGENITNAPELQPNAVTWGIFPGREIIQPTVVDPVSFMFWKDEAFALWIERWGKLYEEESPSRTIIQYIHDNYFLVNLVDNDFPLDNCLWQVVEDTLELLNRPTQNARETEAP

- pKd [1]: 6.41 to 6.42
Compound: Nc1ncnc2c1ncn2[C@@H]1O[C@H](CSCC[C@H](N)C(=O)O)[C@@H](O)[C@H]1O [SAH, S-adenosyl-L-homocysteine]

Compound: Cc1cc2nc3c(=O)[nH]c(=O)nc-3n(C[C@H](O)[C@H](O)[C@H](O)COP(=O)(O)OP(=O)(O)OC[C@H]3O[C@@H](n4cnc5c(N)ncnc54)[C@H](O)[C@@H]3O)c2cc1C [FAD, flavin adenine dinucleotide]
- cryo-EM structure at 2.9 Å (SAM-bound state) [2]: FAD was found in both CD active sites of the homodimer (Fig. 2c) with clear electron densities

- pKd [3]: 6.00 to 6.07
Compound: C[S+](CC[C@H](N)C(=O)[O-])C[C@H]1O[C@@H](n2cnc3c(N)ncnc32)[C@H](O)[C@@H]1O (stereo partly drawn) [SAM, S-adenosyl-L-methionine]
